Measured values as given in PMC8689007, “In Silico Prediction and Bioactivity Evaluation of Chemical Ingredients Against Influenza A Virus From Isatis tinctoria L” (Frontiers in Pharmacology, 2021).
In brackets after ≈: the same amount, converted by molar mass. Several values for one entry are separate records, joined by “and”; a condition that tells them apart may be missing. Equal values may be shown once. Read-outs that look alike come from different tables or passages of the source.

Experiments:
[1] = system: A/HebeiXinhua/SWL1106/2017 (oseltamivir- and amantadine-resistant H1N1); assay: microbe, parasite or virus in culture; settings: Influenza A virus, H1N1, MDCK
[2] = system: A/PR/8/34 (H1N1)
[3] = system: A/HebeiXinhua/SWL1106/2017 (oseltamivir- and amantadine-resistant H1N1)

| Compound | IC50 [1] [µg/mL] | SI, selection index (TC50/IC50) [2] | IC50 [3] |
| --- | --- | --- | --- |
| NC12CC3CC(CC(C3)C1)C2 [Amantadine] | > 100 |  |  |
| COc1c(O)cc2oc(-c3ccc(O)cc3)cc(=O)c2c1O [Dinatin] |  | >2.66 |  |
| COc1ccc(-c2cc(=O)c3c(O)c(OC)c(OC)cc3o2)cc1O [Eupatorin] | 71.8 ± 6.58 (≈ 209 µM) |  | 87.17 ± 5.23 µg/mL and 69.16 ± 2.12 µg/mL and 89.29 ± 5.22 µg/mL |
| CCOC(=O)C1=C[C@@H](OC(CC)CC)[C@H](NC(C)=O)[C@@H](N)C1 [Oseltamivir] | > 100 |  |  |
